Patent US20220125745A1, “PHARMACEUTICAL COMPOSITION FOR CO-ADMINISTRATION OF ACIDOSIS-INDUCING DRUG” (HAIM BIO CO., LTD., priority 2018, published 2022)
Like-named read-outs stand apart in the source and are kept apart here.

Key:
[1] = test system: A549 cells (cancer cells); test: Lactate assay (luminescence) in A549 cells, candidate substance alone or combined with a substance that causes lactic acidosis; assay type: cell-based; settings: for activity at 50 µM: Homo sapiens
Method: (§1) To identify the effects of administration of the candidate substances for lactic acidosis treatment as described in Example 1 in combination with the above-mentioned substances that cause lactic acidosis, A549 cells (cancer cells) or L132 cells (normal cells) were respectively seeded in 96- or 24-well plates at a concentration of 1×10^4 or 3×10^5 cells/well, and incubation was performed overnight. Administration of the candidate substance for acidosis treatment in combination with the substance that causes lactic acidosis was performed and incubation was further performed for 24 hours. For the candidate substances for acidosis treatment, each substance was administered at a uniform concentration of 50 μM; and for the substances that cause lactic acidosis, metformin was administered at 1 to 100 μM, isoniazid was administered at 1 to 500 μM, berberine was administered at 10 μM, linezolid was administered at 200 μM, and phenformin was administered at 100 μM. All substances were dissolved in dimethyl sulfoxide (DMSO, Sigma-Aldrich Corporation, St. Louis, Mo., USA), and the substances to be administered in combination were administered simultaneously. Subsequently, 50 μl of the cell culture solution obtained by being diluted with Dulbecco's Phosphate-Buffered Saline (DPBS; Wellgene, Korea), and 50 μl of the lactate assay reaction buffer (Promega, Madison, Wis., USA) were mixed and the mixture was added in a 96-well plate. Reaction was allowed to proceed at room temperature for 1 hour. Then, luminescence was measured with a spectrophotometer (Synergy HTX Multi-Reader; BioTek, Winooski, Vt., USA). At the same time, the number of cells in each sample was measured with a cell viability analysis kit (Cell Counting Kit-8; Dojindo Molecular Technologies, Inc., Kumamoto, Japan), and calculation was performed so that the lactic acid measurement value in each sample could be compared with that in the negative control for the same number of cells.

[2] = test system: L132 cells (normal cells); test: Lactate assay (luminescence) in L132 cells, candidate substance alone or combined with a substance that causes lactic acidosis; assay type: cell-based; settings: for activity at 50 µM: Homo sapiens
Method: as §1

[3] = A549, candidate 50 μM + berberine 10 μM, relative to berberine alone (PC)
[4] = A549, candidate 50 μM + linezolid 200 μM, relative to linezolid alone (PC)
[5] = A549, candidate 50 μM + phenformin 100 μM, relative to phenformin alone (PC)
[6] = A549, 24 h, read-out: Luminescence intensity (%), Berberine (10 μM) −
[7] = A549, 24 h, read-out: Luminescence intensity (%), Linezolid (200 μM) −
[8] = A549, 24 h, read-out: Luminescence intensity (%), Phenformin (100 μM) −
[9] = L132, 24 h, read-out: Luminescence intensity (%), Berberine (10 μM) −
[10] = L132, 24 h, read-out: Luminescence intensity (%), Linezolid (200 μM) −
[11] = L132, 24 h, read-out: Luminescence intensity (%), Phenformin (100 μM) −
[12] = L132, candidate 50 μM + berberine 10 μM, relative to berberine alone (PC)
[13] = L132, candidate 50 μM + linezolid 200 μM, relative to linezolid alone (PC)
[14] = L132, candidate 50 μM + phenformin 100 μM, relative to phenformin alone (PC)
[15] = A549, candidate 50 μM alone, no berberine, 24 h, vs negative control, mean ± SEM, read-out: Luminescence intensity (%), Berberine (10 μM) −
[16] = A549, candidate 50 μM alone, no linezolid, 24 h, vs negative control, mean ± SEM, read-out: Luminescence intensity (%), Linezolid (200 μM) −
[17] = A549, candidate 50 μM alone, no phenformin, 24 h, vs negative control, mean ± SEM, read-out: Luminescence intensity (%), Phenformin (100 μM) −
[18] = L132, candidate 50 μM alone, no berberine, 24 h, vs negative control, mean ± SEM, read-out: Luminescence intensity (%), Berberine (10 μM) −
[19] = L132, candidate 50 μM alone, no linezolid, 24 h, vs negative control, mean ± SEM, read-out: Luminescence intensity (%), Linezolid (200 μM) −
[20] = L132, candidate 50 μM alone, no phenformin, 24 h, vs negative control, mean ± SEM, read-out: Luminescence intensity (%), Phenformin (100 μM) −
[21] = L132, candidate 50 μM alone, no linezolid, 24 h, vs negative control, mean ± SEM

Structure (SMILES)	Lactic acid value vs. PC (%) [1, 3] [%]	Lactic acid-decreasing rate vs. PC (%) [1, 3] [%]	Lactic acid value vs. PC (%) [1, 4] [%]	Lactic acid-decreasing rate vs. PC (%) [1, 4] [%]	Lactic acid value vs. PC (%) [1, 5] [%]	Lactic acid-decreasing rate vs. PC (%) [1, 5] [%]	Lactic acid value vs. PC (%) [2, 12] [%]	Lactic acid-decreasing rate vs. PC (%) [2, 12] [%]	Lactic acid value vs. PC (%) [2, 13] [%]	Lactic acid-decreasing rate vs. PC (%) [2, 13] [%]	Lactic acid value vs. PC (%) [2, 14] [%]	Lactic acid-decreasing rate vs. PC (%) [2, 14] [%]	activity at 50 µM [1, 15] [%]	activity at 50 µM [1, 16] [%]	activity at 50 µM [1, 17] [%]	activity at 50 µM [2, 18] [%]	activity at 50 µM [2, 19] [%]	activity at 50 µM [2, 20] [%]	further results
O=c1c(-c2ccc(O)cc2)coc2cc(O[C@@H]3O[C@H](CO)[C@@H](O)[C@H](O)[C@H]3O)ccc12 [Daidzin]	92.49	7.51	82.45	17.55	99.76	0.24	95.94	4.06	87.80	12.20	98.19	1.81	–	–	–	–	–	–	activity at 50 µM [1, 6]: 97.4 ± 1.1%; activity at 50 µM [1, 7]: 97.4 ± 1.1%; activity at 50 µM [1, 8]: 97.4 ± 1.1%; activity at 50 µM [2, 9]: 92 ± 1.14%; activity at 50 µM [2, 10]: 92 ± 1.14%; activity at 50 µM [2, 11]: 92 ± 1.14%
CCN(CC)C(=S)SSC(=S)N(CC)CC [Disulfiram]	75.67	24.33	80.93	19.07	90.83	9.17	69.16	30.84	87.16	12.84	78.21	21.79	86.1 ± 1.66	86.1 ± 1.66	86.1 ± 1.66	93.4 ± 2.64	93.4 ± 2.64	93.4 ± 2.64	Luminescence intensity (%), Linezolid (200 μM) − [2, 21]: 93.39 ± 2.64 %
Cc1cc2c(C(C)C)c(O)c(O)c(C=O)c2c(O)c1-c1c(C)cc2c(C(C)C)c(O)c(O)c(C=O)c2c1O [Gossypol]	62.63	37.37	67.86	32.14	67.24	32.76	50.96	49.04	67.84	32.16	51.58	48.42	–	–	–	–	–	–	activity at 50 µM [1, 6]: 87.6 ± 1.87%; activity at 50 µM [1, 7]: 87.6 ± 1.87%; activity at 50 µM [1, 8]: 87.6 ± 1.87%; activity at 50 µM [2, 9]: 84.3 ± 2.9%; activity at 50 µM [2, 10]: 84.3 ± 2.9%; activity at 50 µM [2, 11]: 84.3 ± 2.9%
O=C(O)c1cc(=O)c2ccccc2[nH]1 [Kynurenic acid]	101.87	−1.87	91.54	8.46	92.58	7.42	90.59	9.41	93.53	6.47	91.70	8.30	93.9 ± 1.1	93.9 ± 1.1	93.9 ± 1.1	93.7 ± 1.3	93.7 ± 1.3	93.7 ± 1.3	–
CCSC(=O)N1CCCCCC1 [Molinate]	105.78	−5.78	105.88	−5.88	91.13	8.87	105.04	−5.04	125.68	−25.68	99.16	0.84	110 ± 1.91	110 ± 1.91	110 ± 1.91	155 ± 3.38	155 ± 3.3	155 ± 3.38	–
C#CCN(C)Cc1ccccc1 [Pargyline]	101.89	−1.89	98.24	1.76	95.59	4.41	101.56	−1.56	88.70	11.30	100.88	−0.88	95.68 ± 0.7	95.68 ± 0.7	95.68 ± 0.7	96.1 ± 1.32	96.1 ± 1.32	96.1 ± 1.32	–
O=CC(=O)c1ccccc1 [Phenylglyoxal]	90.18	9.82	82.74	17.26	89.61	10.39	90.06	9.94	88.89	11.11	96.12	3.88	97.3 ± 1.03	97.3 ± 1.03	97.3 ± 1.03	93.7 ± 1.34	93.7 ± 1.34	93.7 ± 1.34	–
C=C(OP(=O)([O-])O)C(=O)O.O.[Na+] [Phospho(enol)pyruvic acid monosodium salt hydrate]	90.07	9.93	92.96	7.04	94.91	5.09	93.05	6.95	89.30	10.70	91.45	8.55	–	–	–	–	–	–	Luminescence intensity (%), Berberine (10 μM) − ([1]; A549, candidate 50 μM alone, no berberine, 24 h, vs negative control, mean ± SEM): 100.07 ± 1.80^ %; Luminescence intensity (%), Linezolid (200 μM) − ([1]; A549, candidate 50 μM alone, no linezolid, 24 h, vs negative control, mean ± SEM): 100.07 ± 1.80^ %; Luminescence intensity (%), Phenformin (100 μM) − ([1]; A549, candidate 50 μM alone, no phenformin, 24 h, vs negative control, mean ± SEM): 100.07 ± 1.80^ %; Luminescence intensity (%), Berberine (10 μM) − ([2]; L132, candidate 50 μM alone, no berberine, 24 h, vs negative control, mean ± SEM): 94.55 ± 1.37 %; Luminescence intensity (%), Linezolid (200 μM) − [2, 21]: 94.55 ± 1.37 %; Luminescence intensity (%), Phenformin (100 μM) − ([2]; L132, candidate 50 μM alone, no phenformin, 24 h, vs negative control, mean ± SEM): 94.55 ± 1.37 %
